Consider one molecule from patent publication US5475018A, “1,5-diphenyl pyrazole compounds for treatment of inflammation” (G. D. Searle & Co., priority 1993, dated 1995).

Assay [1] can be described thus: Rat Carrageenan-induced Analgesia Test. It counts as in vivo, Male Sprague-Dawley rats. Particulars: oral, inhibition of hyperalgesic foot withdrawal, 3 h after carrageenan. The procedure: (§1) The carrageenan foot edema test was performed with materials, reagents and procedures essentially as described by Winter et al (Proc. Soc. Exp. Biol. Med., 111, 544 (1962)). Male Sprague-Dawley rats were selected in each group so that the average body weight was as close as possible. Rats were fasted with free access to water for over sixteen hours prior to the test. The rats were dosed orally (1 mL) with compounds suspended in vehicle containing 0.5% methylcellulose and 0.025% surfactant, or with vehicle alone. One hour later a subplantar injection of 0.1 mL of 1% solution of carrageenan/sterile 0.9% saline was administered and the volume of the injected foot was measured with a displacement plethysmometer connected to a pressure transducer with a digital indicator. Three hours after the injection of the carrageenan, the volume of the foot was again measured. The average foot swelling in a group of drug-treated animals was compared with that of a group of placebo-treated animals and the percentage inhibition of edema was determined (Otterness and Bliven, Laboratory Models for Testing NSAIDs, in Non-steroidal Anti-Inflammatory Drugs, (J. Lombardino, ed. 1985)).
The analgesia test using rat carrageenan was performed with materials, reagents and procedures essentially as described by Hargreaves et al (Pain, 32, 77 (1988)). […] The time until the rat withdraws its foot was then measured. […]

Assay [2] in a line: Rat Carrageenan Foot Pad Edema Test. Particulars: oral, dosed 1 h before carrageenan, foot volume 3 h after carrageenan, vs placebo. Format: in vivo, Male Sprague-Dawley rats. As to the method: as §1
For orientation: The carrageenan paw model is a standard test of acute inflammation.

Molecules are shown by their SMILES.

For the molecule `CS(=O)(=O)c1ccc(-n2nc(C(F)(F)F)cc2-c2ccc(F)cc2)cc1` [Example 1, 5-(4-Fluorophenyl)-1-[4-(methylsulfonyl)phenyl]-3-(trifluoromethyl)pyrazole], in assay [1], the “ANALGESIA % Inhibition @ 20 mg/kg body weight” value turned out to be 37%. Also, the “RAT PAW EDEMA % Inhibition @ 10 mg/kg body weight” value in assay [2] was determined as 38%.
